Patent US11753445B2, “Therapeutic peptides” (COHBAR, INC., priority 2016, dated 2023)
Peptide text beside a SMILES is read from it.

These compounds were tested on 3T3-L1 Adipocytes (assay: Free fatty acid levels in cultured mouse 3T3-L1 adipocytes, isoproterenol stimulated (Example 2)). Conditions: test peptides 25 μM; isoproterenol 1 nM.
Assay type: cell-based
Procedure, shortened: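 Release of free fatty acids, read at 540 nm, was stimulated with 1 nM isoproterenol for 3 h in mouse 3T3-L1 adipocytes (12–17 days of differentiation). Cells were pre-exposed to 25 μM peptide for 18–20 h plus 1 h, with peptide kept in during stimulation. Values are background-subtracted and normalised to isoproterenol alone.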

In order of falling “Free Fatty Acid Levels in 3T3-L1 Adipocytes Expressed as a Percent of Isoproterenol Control: Percent of Control Value”:
1. Ac-MRWQEMGYIFYPEKLR-NH2 [compound 194]  107.2%
2. H-MRWQEMGYIFY-OH [compound 49]  103.3%
3. Ac-MRWQDMGYIFYPRRLR-NH2 [compound 132]  102.6%
4. Ac-LRWQEMGYIFYPRKLR-NH2 [compound 108]  101.3%
5. H-MRWQEMGYIF-OH [compound 50]  97.4%
6. CC[C@H](C)[C@H](NC(=O)[C@H](Cc1ccc(O)cc1)NC(=O)CNC(=O)[C@H](CCC(=O)O)NC(=O)[C@H](CCC(=O)O)NC(=O)[C@H](CCC(N)=O)NC(=O)[C@H](Cc1c[nH]c2ccccc12)NC(=O)[C@H](CCCNC(=N)N)NC(=O)[C@@H](C)N)C(=O)N[C@@H](Cc1ccccc1)C(=O)N[C@@H](Cc1ccc(O)cc1)C(=O)N1CCC[C@H]1C(=O)N[C@@H](CCCNC(=N)N)C(=O)N[C@@H](CCCCN)C(=O)N[C@@H](CC(C)C)C(=O)N[C@@H](C)C(=O)O [compound 230] (HELM PEPTIDE1{[dA].R.W.Q.E.E.G.Y.I.F.Y.P.R.K.L.A}$$$$V2.0)  94.5%
7. Ac-MRWQEMGYIF-NH2 [compound 64]  90.6%
8. Ac-LKWQEMGYIFYPRKLR-NH2 [compound 112]  90.5%
9. CC[C@H](C)[C@H](NC(=O)[C@H](Cc1ccc(O)cc1)NC(=O)CNC(=O)[C@H](CCSC)NC(=O)[C@H](CCC(=O)O)NC(=O)[C@H](CCC(N)=O)NC(=O)[C@H](Cc1c[nH]c2ccccc12)NC(=O)C(C)(C)NC(=O)[C@@H](N)CCSC)C(=O)N[C@@H](Cc1ccccc1)C(=O)N[C@@H](Cc1ccc(O)cc1)C(=O)N1CCC[C@H]1C(=O)N[C@@H](CCCNC(=N)N)C(=O)N[C@@H](CCCCN)C(=O)N[C@@H](CC(C)C)C(=O)N[C@@H](CCCNC(=N)N)C(N)=O [compound 119] (HELM PEPTIDE1{M.[Aib].W.Q.E.M.G.Y.I.F.Y.P.R.K.L.R.[am]}$$$$V2.0)  89.2%
10. Ac-MRWQEMGEIFYPRKLR-NH2 [compound 189]  87.6%
11. CC[C@H](C)[C@H](NC(=O)[C@H](Cc1ccc(O)cc1)NC(=O)CNC(=O)[C@H](CCSC)NC(=O)[C@H](CCC(=O)O)NC(=O)[C@H](CCC(N)=O)NC(=O)[C@H](Cc1c[nH]c2ccccc12)NC(=O)C(C)(C)NC(=O)[C@@H](N)CCSC)C(=O)N[C@@H](Cc1ccccc1)C(=O)N[C@@H](Cc1ccc(O)cc1)C(=O)N1CCC[C@H]1C(=O)N[C@@H](CCCNC(=N)N)C(=O)N[C@@H](CCCCN)C(=O)N[C@@H](CC(C)C)C(=O)N[C@@H](CCCNC(=N)N)C(=O)O [compound 118] (HELM PEPTIDE1{M.[Aib].W.Q.E.M.G.Y.I.F.Y.P.R.K.L.R}$$$$V2.0)  84.6%
12. Ac-LRWQEMGYIFYPRLKR-NH2 [compound 110]  82.6%
13. Ac-MRWQEMGYIEYPRKLR-NH2 [compound 191]  81.7%
14. Ac-ERWQEMGYIFYPRKLR-NH2 [compound 183]  81.6%
15. Ac-LKWQEMGYIFYPRLKR-NH2 [compound 114]  78.4%
16. CC[C@H](C)[C@H](NC(=O)[C@H](Cc1ccc(O)cc1)NC(=O)CNC(=O)[C@H](CCSC)NC(=O)[C@H](CCC(=O)O)NC(=O)[C@H](CCC(N)=O)NC(=O)[C@H](Cc1c[nH]c2ccccc12)NC(=O)[C@H](CCCNC(=N)N)NC(=O)[C@H](CCSC)NC(C)=O)C(=O)N[C@@H](Cc1ccccc1)C(=O)N[C@@H](Cc1ccc(O)cc1)C(=O)N1CCC[C@H]1C(=O)N[C@H](C)C(=O)N[C@@H](CCCCN)C(=O)N[C@@H](CC(C)C)C(=O)N[C@@H](CCCNC(=N)N)C(N)=O [compound 164] (HELM PEPTIDE1{[ac].M.R.W.Q.E.M.G.Y.I.F.Y.P.[dA].K.L.R.[am]}$$$$V2.0)  77.2%
17. Ac-MREQEMGYIFYPRKLR-NH2 [compound 185]  77.0%
18. CC[C@H](C)[C@H](NC(=O)[C@H](Cc1ccc(O)cc1)NC(=O)CNC(=O)[C@H](CCC(=O)O)NC(=O)[C@H](CCC(=O)O)NC(=O)[C@H](CCC(N)=O)NC(=O)[C@H](Cc1c[nH]c2ccccc12)NC(=O)[C@H](CCCNC(=N)N)NC(=O)[C@@H](C)N)C(=O)N[C@@H](C)C(=O)N[C@@H](Cc1ccc(O)cc1)C(=O)N1CCC[C@H]1C(=O)N[C@@H](CCCNC(=N)N)C(=O)N[C@@H](CCCCN)C(=O)N[C@@H](CC(C)C)C(=O)N[C@@H](C)C(=O)O [compound 236] (HELM PEPTIDE1{[dA].R.W.Q.E.E.G.Y.I.A.Y.P.R.K.L.A}$$$$V2.0)  74.8%
19. H-ERWQEAGYIFYPR-OH [compound 235]  71.8%
20. Ac-MRWQEMGYIFYPAKLR-NH2 [compound 34]  70.7%
21. CC[C@H](C)[C@@H]1NC(=O)[C@H](Cc2ccc(O)cc2)NC(=O)CNC(=O)[C@H](CCSC)NC(=O)[C@H](CCC(=O)O)NC(=O)[C@@H](NC(=O)[C@H](Cc2c[nH]c3ccccc23)NC(=O)[C@H](CCCNC(=N)N)NC(=O)[C@H](CCSC)NC(C)=O)CCC(=O)NCCCC[C@@H](C(=O)N[C@@H](CCCNC(=N)N)C(=O)N[C@@H](CCCCN)C(=O)N[C@@H](CC(C)C)C(=O)N[C@@H](CCCNC(=N)N)C(N)=O)NC(=O)[C@H](Cc2ccc(O)cc2)NC(=O)[C@H](Cc2ccccc2)NC1=O [compound 228] (HELM PEPTIDE1{[ac].M.R.W.E.E.M.G.Y.I.F.Y.K.R.K.L.R.[am]}$PEPTIDE1,PEPTIDE1,5:R3-13:R3$$$V2.0)  69.9%
22. CC[C@H](C)[C@H](NC(=O)[C@H](Cc1ccc(O)cc1)NC(=O)CNC(=O)[C@H](CCSC)NC(=O)[C@H](CCC(=O)O)NC(=O)[C@H](CCC(N)=O)NC(=O)[C@H](Cc1c[nH]c2ccccc12)NC(=O)[C@H](CCCNC(=N)N)NC(=O)[C@@H](N)CCSC)C(=O)N[C@@H](Cc1ccccc1)C(=O)N[C@@H](Cc1ccc(O)cc1)C(=O)N1CCC[C@H]1C(=O)N[C@@H](CCCNC(=N)N)C(=O)N[C@@H](CCCCN)C(=O)NC(CC)(CC)C(=O)N[C@@H](CCCNC(=N)N)C(=O)O [compound 198] (HELM PEPTIDE1{M.R.W.Q.E.M.G.Y.I.F.Y.P.R.K.[CCC(CC)(N[*:1])C(=O)[*:2]].R}$$$$V2.0)  69.2%
23. CC[C@H](C)[C@H](NC(=O)[C@H](Cc1ccc(O)cc1)NC(=O)CNC(=O)[C@H](CCC(=O)O)NC(=O)[C@H](CCC(=O)O)NC(=O)[C@H](CCC(N)=O)NC(=O)[C@H](Cc1c[nH]c2ccccc12)NC(=O)[C@H](CCCNC(=N)N)NC(=O)[C@@H](C)N)C(=O)N[C@@H](Cc1ccccc1)C(=O)N[C@@H](Cc1ccc(O)cc1)C(=O)N1CCC[C@H]1C(=O)N[C@@H](CCCNC(=N)N)C(=O)N[C@@H](CCCCN)C(=O)N[C@@H](CC(C)C)C(=O)N[C@H](C)C(=O)O [compound 231] (HELM PEPTIDE1{[dA].R.W.Q.E.E.G.Y.I.F.Y.P.R.K.L.[dA]}$$$$V2.0)  61.6%
24. CC[C@H](C)[C@H](NC(=O)[C@H](Cc1ccc(O)cc1)NC(=O)CNC(=O)[C@H](CCSC)NC(=O)[C@H](CCC(=O)O)NC(=O)[C@H](CCC(N)=O)NC(=O)[C@H](Cc1c[nH]c2ccccc12)NC(=O)[C@H](CCCNC(=N)N)NC(=O)[C@@H](N)CCSC)C(=O)N[C@@H](Cc1ccccc1)C(=O)N[C@@H](Cc1ccc(O)cc1)C(=O)N[C@H](C)C(=O)N[C@@H](CCCNC(=N)N)C(=O)N[C@@H](CCCCN)C(=O)N[C@@H](CC(C)C)C(=O)N[C@@H](CCCNC(=N)N)C(=O)O [compound 147] (HELM PEPTIDE1{M.R.W.Q.E.M.G.Y.I.F.Y.[dA].R.K.L.R}$$$$V2.0)  60.9%
25. Ac-MRWQEMGYIFYPRELR-NH2 [compound 195]  58.9%
26. H-MRWQEMGYIFYPKKLR-OH [compound 123]  58.8%
27. H-MRWQEMGEIFEPRKLR-OH [compound 134]  56.2%
28. CC[C@H](C)[C@H](NC(=O)[C@H](Cc1ccc(O)cc1)NC(=O)CNC(=O)[C@H](CCC(=O)O)NC(=O)[C@H](CCC(=O)O)NC(=O)[C@H](CCC(N)=O)NC(=O)[C@H](Cc1c[nH]c2ccccc12)NC(=O)[C@H](CCCNC(=N)N)NC(=O)[C@@H](C)N)C(=O)N[C@@H](C)C(=O)N[C@@H](Cc1ccc(O)cc1)C(=O)N1CCC[C@H]1C(=O)N[C@@H](CCCNC(=N)N)C(=O)O [compound 238] (HELM PEPTIDE1{[dA].R.W.Q.E.E.G.Y.I.A.Y.P.R}$$$$V2.0)  52.9%
29. H-MEWQEMGYIFYPRKLR-OH [compound 169]  49.2%
30. CC[C@H](C)[C@H](NC(=O)[C@H](Cc1ccc(O)cc1)NC(=O)CNC(=O)[C@H](CCSC)NC(=O)[C@H](CCC(=O)O)NC(=O)[C@H](CCC(N)=O)NC(=O)[C@H](Cc1c[nH]c2ccccc12)NC(=O)[C@H](CCCNC(=N)N)NC(=O)[C@@H](N)CCSC)C(=O)N[C@@H](Cc1ccccc1)C(=O)N[C@@H](Cc1ccc(O)cc1)C(=O)N1CCC[C@H]1C(=O)N[C@H](C)C(=O)N[C@@H](CCCCN)C(=O)N[C@@H](CC(C)C)C(=O)N[C@@H](CCCNC(=N)N)C(=O)O [compound 148] (HELM PEPTIDE1{M.R.W.Q.E.M.G.Y.I.F.Y.P.[dA].K.L.R}$$$$V2.0)  25.0%
